Data reported in US12178839B2, “Anti-obesity agent, pollakiuria improving agent, and autonomic nervous activity regulator” (ASAHI GROUP HOLDINGS, LTD., priority 2018, dated 2024).
Ends that are not written are not given here.

Tested on: Male Wistar rats
Test: Rat spontaneous urination test (metabolism cage), Test Example 6
Type: in vivo
Settings: aqueous 0.1 mg/mL LNDP solution as drinking for 7 days
Method: It was confirmed from Test Example 2 that LNDP promotes the efferent hypogastric nerve activity, and it was confirmed from Test Example 3 that LNDP inhibits the efferent the pelvic splanchnic nerve activity. Influence on the bladder, which is one of the internal organs dominated by these nerves, was therefore investigated.
Male Wistar rats which are 13 weeks old were received, and quarantined and acclimated in a thermostat animal room at 18 to 28° C. in a cycle including a 12-hour light period and a 12-hour dark period for 1 week, and ten 14- to 16-week-old rats per group were tested. An aqueous 0.1 mg/mL LNDP solution or water was ingested from drinking for 7 days, and the urination amount was measured as weight with an electronic balance installed under a urine-collecting opening in raising with a metabolism cage. The weight data of the electronic balance every minute were automatically inputted into a computer. […] The total urination amount and the frequency of urination per day were found, and the urine amount per one time of urination (=the total urination amount per day/the frequency of urination per day) was calculated as to an individual of each group. […] As to the comparison of the test substance and ingestion days with respect to each measured value, two-way analysis of variance (two-way ANOVA) with replication was performed.

significant difference in the general symptoms vs water ingestion group: not observed
Sequence: NIPPLTQTPVVVPPFLQPE [LNDP, Asn-Ile-Pro-Pro-Leu-Thr-Gln-Thr-Pro-Val-Val-Val-Pro-Pro-Phe-Leu-Gln-Pro-Glu]
significant difference in change in body weight vs water ingestion group: not observed
